Results reported in PubChem BioAssay (NCI).
Values joined by “and” are separate entries in the source; they are usually repeats but may differ in a detail not shown here. Equal entries are not always repeated.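 A five-concentration, 48-hour dose response in 96-well plates underlies each endpoint, interpolated linearly between surrounding concentrations. GI50 = concentration required for 50% inhibition of growth. TGI: concentration producing complete growth inhibition.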

Legend:
Test in all cases: NCI anticancer screen, dose series, 48 h
[1] = system: KM12 colon
[2] = system: LOX IMVI melanoma
[3] = system: SK-MEL-2 melanoma
[4] = system: SF-295 CNS
[5] = system: ACHN renal
[6] = system: PC-3 prostate
[7] = system: A498 renal
[8] = system: COLO 205 colon
[9] = system: HCT-116 colon
[10] = system: HOP-62 NSCLC

SMILES | TGI [1] [µM] | TGI [2] [µM] | TGI [3] [µM] | TGI [4] [µM] | TGI [5] [µM] | TGI [6] [µM] | TGI [7] [µM] | TGI [8] | TGI [9] [µM] | TGI [10] [µM] | GI50 [1] [µM] | GI50 [2] [µM] | GI50 [3] [µM] | GI50 [4] [µM] | GI50 [5] [µM] | GI50 [6] [µM] | GI50 [7] [µM] | GI50 [8] [µM] | GI50 [9] [µM] | GI50 [10] [µM]
NC(=O)c1cccc([C@@H]2O[C@H](CO)[C@@H](O)[C@H]2O)c1 | 15.9 | > 85.4 | > 100 | 28.7 | 71.3 | > 100 | > 100 | 48.7 µM | 34.6 | 28 |  |  |  |  |  |  |  |  |  | 
ClCc1ccc(Cn2cnc3c(Cl)nc(Cl)nc32)cc1 | 3.23 | 4.13 | 43.5 | 19.5 | 5.28 | 7.17 | 25.1 | > 100 µM | 3.6 | 5.09 | 1.8 | 2.06 | 19.8 | 7.2 | 2.35 | 2.7 | 12.1 | 3.45 | 1.72 | 2.19
Clc1nc(Cl)c2ncn(Cc3ccc(Cn4cnc5c(Cl)nc(Cl)nc54)cc3)c2n1 | 31.2 | 14.9 | 34.9 | 48.2 | 20.4 | 16.3 | 50.2 | > 100 µM | 16.2 | 21.5 | 12.5 | 0.96 | 10.8 | 7.68 | 5.16 | 1.56 | 7.48 | > 100 | 0.852 | 6.73
CN1C(Cl)=NS(=O)(=O)c2ccccc21 | > 100 | > 100 | > 100 | > 100 | > 100 | > 100 | > 100 | > 100 µM | > 100 | > 100 |  |  |  |  |  |  |  |  |  | 
Cc1nc(Nc2nc3ccccc3o2)nc(-c2cccc([N+](=O)[O-])c2)c1C(=O)Nc1ccc(F)c(Cl)c1 | 12.4 | > 100 | 4.73 | 7.09 | 81.7 | 11.5 | 3.5 | 3.4 µM | > 100 | 50.4 | 1.96 | 2.78 | 2.03 | 1.65 | 2.42 | 0.797 | 0.853 | 1.78 | 1.98 | 2.58
NCCSCCc1ccccc1 | > 100 | > 100 | > 100 | > 100 | > 100 | > 100 | > 100 | > 100 µM | > 100 | > 100 |  |  |  |  |  |  |  |  |  | 
CNC(=O)OCC1C2=C(C(=O)C(C)=C(N)C2=O)N2CC3C(N3C)C12OC (configuration not stated) |  | 33.9 | 55.7 | 67 | 26.7 | 64.7 | 34.2 | 31.7 µM | 30.4 | > 100 |  |  |  |  |  |  |  |  |  | 
N#Cc1cc(S(=O)(=O)Nc2nc3ccccc3s2)c(SCc2ccccc2)cc1Cl | 46.7 | 48.2 | 36.8 | 44.1 | 75 | 51.1 | 45.8 | 88.6 µM | 32.5 | 45.7 | 19.8 | 20.8 | 15.3 | 13.6 | 24.7 | 23.1 | 20.3 | 26.5 | 16.1 | 24.5
C/C=C(\C)C(=O)N[C@H]1C(O)C[C@]2(C)C3CC[C@@]4(C)C(CC[C@@H]4C(C)N(C)C)C3CCC2C1O (some centres not stated) | 25.8 | 4.7 | 49.1 | 29 | 43.4 | > 52.6 | 30.1 | 3.48 µM | 6.39 | 11.8 | 6.85 | 1.81 | 24.1 | 8.83 | 10.3 | 8.72 | 10.4 | 1.74 | 2.28 | 5.97
COc1ccc(C2=CC(c3ccc(OC)c(OC)c3)c3c(c4ccccc4oc3=O)O2)cc1OC (configuration not stated) | > 100 | > 100 | > 100 | > 100 | > 100 | > 100 | > 20.2 | > 24.2 µM | > 59.6 | > 100 | 1.25 | 4.22 | 12.2 | 0.442 | 3.03 | 0.745 | 0.892 | 2.04 | 1.58 | 2.2
CC(=O)Oc1ccc(C(c2ccc(OC(C)=O)cc2)c2ccccn2)cc1 | > 100 | > 100 | > 100 | > 100 | > 100 | > 100 | > 100 | 36.5 µM and > 69.4 µM | > 100 | > 100 | 39.2 | 52.7 | 43.1 | 37.1 | 36.8 | 16.3 | 8.9 | 0.463 | 40.7 | > 58.3
CC(C)COC(=O)c1ccc2[nH]c(O)c(C=Nc3ccc(S(N)(=O)=O)cc3)c2c1 | 3.87 | 4.06 | 4.19 | 8.46 | 5.8 | 6.54 | 5.9 | 1.91 µM | 3 | 4.84 | 1.06 | 0.666 | 1.73 | 1.77 | 0.885 | 1.6 | 2.28 | 0.532 | 0.613 | 1.58
CC(Br)C(=O)Nc1ccc(C(=O)O)c(O)c1 (configuration not stated) | > 100 | > 100 | > 100 | > 100 | > 100 | > 100 | > 100 | > 100 µM | > 100 | > 100 |  |  |  |  |  |  |  |  |  | 
COC1=C2CC(C)CC(OC)C(O)C(C)/C=C(\C)C(OC(N)=O)C(OC)/C=C\C=C(/C)C(=O)NC(=C(/C=N/N3CCCCC3)C1=O)C2=O (configuration not stated) | 25.1 | 22.3 | 32.5 | 30.1 | 28.8 | > 100 | 63.8 | 8.25 µM | 9.48 | 44.5 |  |  |  |  |  |  |  |  |  | 
O=C1NCCS(=O)(=O)/C1=C\C=C\c1cccc(C(F)(F)F)c1 | 6.67 | 2.61 | 9.77 | 15 | 4.52 | 11.4 | 5.31 | 5.2 µM | 3.72 | 12.7 | 2.36 | 1.23 | 2.62 | 3.71 | 1.99 | 2.79 | 2.51 | 2.31 | 1.41 | 3.72
Cc1cccc(Nc2cnc(N)nc2N)c1 | > 100 | > 100 | > 100 | > 100 | > 100 | > 100 | > 100 | > 100 µM | > 100 | > 100 |  |  |  |  |  |  |  |  |  | 
CCc1nc(N)nc(N)c1-c1ccc(Cl)c(N=CN(C)C)c1 | > 100 | > 100 | > 100 | > 100 | > 100 | > 100 | > 100 | > 100 µM | > 100 | > 100 |  |  |  |  |  |  |  |  |  | 
Cn1c(=O)c(Oc2ccc(F)cc2F)cc2cnc(NCCS(C)(=O)=O)nc21 | > 25 | > 25 | > 25 | > 25 | > 25 | > 25 | > 25 | > 25 µM | > 25 | > 25 | > 25 | > 25 | > 25 | > 25 | > 25 | > 25 | > 25 | > 25 | > 25 | > 25
CC1=C(/C=C/C(C)=C/C=C/C(C)=C/CO)C(C)(C)CCC1 | > 100 | 43.5 | 44 | 58.3 | > 100 | > 100 | 42.6 | 38.3 µM |  | 47.5 |  |  |  |  |  |  |  |  |  | 
C=C1[C@@H]([C@@]2(C)C=CC(=O)C(C)(C)[C@@H]2CC(=O)OC)CC[C@@]2(C)C(c3ccoc3)OC(=O)[C@H]3O[C@]132 (some centres not stated) | > 100 | > 100 | > 100 | > 100 | > 100 | > 100 | > 100 | > 100 µM | > 100 |  |  |  |  |  |  |  |  |  |  | 
Cc1ncc([N+](=O)[O-])n1CCNC(=O)Cn1c([N+](=O)[O-])cnc1C | > 100 |  | > 100 | > 100 | > 100 | > 100 | > 100 | > 100 µM | > 100 | > 100 |  |  |  |  |  |  |  |  |  | 
COc1cc(Cl)cc(-c2nn(-c3cccc(NC(=O)Nc4ccc(Cl)c(C(F)(F)F)c4)c3)cc2-c2ccncc2)c1 | 4.44 |  | 4.21 | 2 | 10.2 | 2.12 | 14.4 | 3.11 µM | 2.36 | 6.32 | 0.555 |  | 1.79 | 0.465 | 0.762 | 0.342 | 2.68 | 1.53 | 0.631 | 2.12
O=C1C=CC(O)C2C1CC13SSC4(CC5C(=O)C=CC(O)C5N4C1=O)C(=O)N23 (configuration not stated) | 0.342 | 0.193 | 3.56 | 2.94 | 0.835 | 1.13 | 6.26 | 1.04 µM |  | 1.15 |  |  |  |  |  |  |  |  |  | 
Cc1cc2c(cc1N)C(C)C1(CCC(=O)N2Cc2ccccc2)OCCO1 (configuration not stated) | > 100 | > 100 | > 100 | > 100 | > 100 | > 100 | > 100 |  | > 100 | > 100 |  |  |  |  |  |  |  |  |  | 
